SMILES strings stand for the structures. Where a name gives a salt, the structure may show the parent alone. Read-outs that look alike come from different tables or passages of the source.

In series [1] the test system is platelet thromboxane generation. Put plainly: Inhibition of platelet thromboxane generation (TxB2, collagen-stimulated human platelet rich plasma). In kind it is cell-based. The following applies: 10 min, read-out: Activity IC50 (50% inhibition of TxB2 generation). On the procedure:
The compounds used according to the invention as anti-thrombotics were tested by the following method for their ability to inhibit platelet thromboxane generation.
Human venous blood was collected from healthy male donors, who had denied any medication in the previous 14 days. Nine volumes of blood were mixed with one volume of 3.24% trisodium citrate. The citrated blood was centrifuged at 160 g for 10 mins. at 22° C. to obtain platelet rich plasma (PRP). The platelets were then counted on a Coulter counter, and the platelet count was adjusted to 200,000 per μl with plasma.
The PRP was then dispensed as aliquots into micro-Eppendorf tubes, maintained at 37° C. in a dry bath. The compounds dissolved either in saline, ethanol, or DMSO were added in duplicate to the PRP aliquots to produce final concentrations of 0.3, 3 and 30 μg/ml. When ethanol and DMSO were used as the vehicle, triplicate controls containing the same percentage of vehicle as the test compounds were made. The final concentration or organic solvent was never more than 0.1%, which in previous experiments had no effect on TxB2 generation.
Following a 10 min. incubation with test compounds or vehicle, collagen was added to produce a final concentration of 8 μg/ml. The tubes were then whirly-mixed for 15 seconds and replaced in the dry bath for a further 10 minutes, controls received saline instead of collagen. The reaction was then stopped by rapid centrifugation, 15,000 g for 3 mins. The plasma was removed and frozen at -29° C. until assayed.
Briefly, 100 μl aliquots, in tricine buffered saline+0.8% gelatin (pH 8.0) of the following were incubated together for 1 hour at 37° C.: thromboxane Tx B2 (plasma extract, spiked plasma extract or standards 20 to 20,000 pg/ml), ^3 H--TxB2 (approximately 15,000 dpm) and anti-TxB2 antiserum (0.5 μg/100 μl). The free and protein bound ^3 H--TxB2 were separated by ammonium sulphate precipitation followed by centrifugation. 300 μl of the supernatant was added to an aqueous scintillation fluid, and the radioactivity present was counted in a liquid scintillation counter. The binding of ^3 H--TxB2 in the absence of added TxB2 was approximately 55%. The least amount of TxB2 to be detected accurately in the plasma was 0.08 ng/ml. Cross reactivity with other prostaglandins is less than 0.005% except PGD2 which is 1%.
Thus plasma samples were assayed to give a rough approximation of TxB2 content. The plasma was then appropriately diluted and assayed in duplicate to give accurate values.
The amount of TxB2 generated by the collagen was calculated by subtracting mean values obtained for the saline stimulated platelets from the mean values obtained from the collagen stimulated platelets. Then the amount of TxB2 generated in the presence of each concentration of compound was expressed as a % control and dose response curves were then constructed to determine the concentration of compound which produced a 50% inhibition.

Series [2] can be described thus: in vivo.
Series [3] relates to Trichophyton mentagrophytes. Put plainly: Experimental Trichophyton mentagrophytes infection in guinea pigs. The series is classed as in vivo. An excerpt: Effect of oral or topical administration of HC274, HC344, Clotrimazole, and Ketoconazole on experimental Trichophyton mentagrophytes infection in guinea pigs.
*Based on degree of hair loss, erythema, desquamation, Max. = 100
Treatments administered in Carbopol® gel, once daily days 5-10.

The subject of series [4] is C. albicans. Put plainly: Vaginal candida infection in rats, oral or topical treatment. In kind it is in vivo. The text has this:
Effect of oral or topical administration of HC274 and ketoconazole on vaginal candida infection in rats. Clearance of C. albicans from rat vagina following oral or topical treatment (as percentage of control).
Topical treatment: 1% solution in polyethylene glycol administrated twice daily for 3 days.
Oral treatment: Once daily for 3 days.

Series [5] has as its system candida albicans. The series can be described thus: Oral treatment: recovery of viable candida albicans from the kidneys of infected mice. In kind it is in vivo. An excerpt: Effect of oral treatment with HC274, HC316, HC390, HC415 and Ketoconazole on the recovery of viable candida albicans from the kidneys of infected mice.
In series [6] the test system is candida. The series can be described thus: Intravenous administration: recovery of viable candida cells from the kidneys of infected mice. In kind it is in vivo. The conditions noted are these: 25 mg/ml.
Series [7] concerns C. albicans. The series can be described thus: Recovery of viable candida cells from the kidneys of infected mice (p.o. and i.v. treatment). The following applies: 25 mg/kg 1 h and 24 h after infection. The series is classed as in vivo. On the procedure: Mice receive 25×10^4 cells of C. albicans i.v. Treatments (25 mg/kg) administered in PEG/Dextrose 1 h and 24 h after infection. Animals sacrified 48 h after infection and kidneys excised, weighed, homogenized and decimal dilutions spread on glucose-peptone agar.

The mark [8] stands for this setting: collagen 8 μg/ml, human PRP, 10 min. incubation, 37° C.
The mark [9] stands for this setting: topical, 1% w/w in Carbopol gel once daily days 5-10, day 10 after infection.
Where [10] appears, read: topical, 1% w/w in Carbopol gel, day 5 after infection.
Setting [11] is: topical, 1% solution in polyethylene glycol twice daily for 3 days.

In the case of `Clc1cccc(Cl)c1NN=C(Cn1ccnc1)c1ccccc1` [HC 368, 1-phenyl-2-(1H-imidazol-1-yl)ethanone, 2,6-dichlorophenylhydrazone, hydrochloride], in series [1] (setting [8]), the IC50 stood at 800 nM.
Still for that read-out and setting: the figure for `Clc1ccc(C(Cn2ccnc2)=NNc2c(Cl)cccc2Cl)c(Cl)c1` [HC 377, 1-(2,4-dichlorophenyl)-2-(1H-imidazol-1-yl)ethanone, 2,6-dichlorophenylhydrazone, hydrochloride] is 2700 nM; for `Fc1ccccc1C(Cn1ccnc1)=NNc1ccc(Cl)cc1Cl` [HC 426, 1-(2-fluorophenyl)-2-(1H-imidazol-1-yl)ethanone, 2,4-dichlorophenylhydrazone, hydrochloride] it is 5500 nM.
`Clc1ccc(/C(Cn2ccnc2)=N/Nc2c(Cl)cccc2Cl)cc1` [HC344, (Z)-1-(4-chlorophenyl)-2-(1H-imidazol-1-yl) ethanone, 2,6-dichlorophenylhydrazone, hydrochloride]: in series [2] (mouse, in vivo, ip, male mice, 7 day, read-out: LD50), the LD50 at 168 h turned out to be 780 mg/kg. The compound further gave an LD12.5 in series [2] (p.o., male mice, 7 day) greater than 1500 mg/kg. The “Disease rating (degree of hair loss, erythema, desquamation, Max. = 100)” value in series [3] (setting [9]) amounted to 24.6; in series [3] (setting [10]), 100.
With `N#Cc1ccc(C(Cn2ccnc2)=NNc2c(Cl)cccc2Cl)cc1` [HC 416, 1-(4-cyanophenyl)-2-(1H-imidazol-1-yl)ethanone, 2,6-dichlorophenylhydrazone, hydrochloride], the IC50 in series [1] (setting [8]) was 13800 nM.
For `O=[N+]([O-])c1cccc(C(Cn2ccnc2)=NNc2c(Cl)cccc2Cl)c1` [HC 402, 1-(3-nitrophenyl)-2-(1H-imidazol-1-yl)ethanone, 2,6-dichlorophenylhydrazone, hydrochloride], the IC50 in series [1] (Homo sapiens) was found to be 700 nM.
Turning to `FC(F)(F)c1ccccc1C(Cn1ccnc1)=NNc1c(Cl)cccc1Cl` [HC 418, 1-(2-trifluoromethylphenyl)-2-(1H-imidazol-1-yl)ethanone, 2,6-dichlorophenylhydrazone, hydrochloride], in series [1] (setting [8]), the IC50 is 20900 nM.
The compound `Clc1ccccc1C(c1ccccc1)(c1ccccc1)n1ccnc1` [Clotrimazole, 1-(2-Chlorophenyl)diphenylmethyl-1H-imidazole, reference compound] came in with an LD50 at 168 h in series [2] (mouse, in vivo, iv) of 10 mg/kg. In series [2] (p.o., male mice, 7 day), the LD12.5 was determined as 500 mg/kg. In addition, the “Clearance of C. albicans from rat vagina (as percentage of control)” value in series [4] (setting [11]) is listed as 100 percentage of control. In addition, the results for the “Disease rating (degree of hair loss, erythema, desquamation, Max. = 100)” value in series [3] (setting [9]) and in series [3] (setting [10]) were 51.9 and 100, respectively.
As for `Cl.Fc1c(F)c(F)c(N/N=C(\Cn2ccnc2)c2ccc(Cl)cc2)c(F)c1F` [HC415, (Z)-1-(4-chlorophenyl)-2-(1H-imidazol-1-yl)ethanone, 2,3,4,5,6-pentafluorophenylhydrazone hydrochloride], the “Recovery of C.albicans (as percentage of control)” value in series [5] (5 mg/kg) is recorded as 14.0 percentage of control; in series [5] (20 mg/kg), 17.2 percentage of control.
`Clc1ccccc1C(Cn1ccnc1)=NNc1c(Cl)cccc1Cl` [HC 365, 1-(2-chlorophenyl)-2-(1H-imidazol-1-yl)ethanone, 2,6-dichlorophenylhydrazone, hydrochloride]: the IC50 in series [1] (setting [8]) amounted to 3600 nM.
For `Clc1ccc(C(Cn2ccnc2)OCc2ccsc2Cl)c(Cl)c1` (centres unmarked) [Tioconazole, 1-[2-[(2-Chloro-3-thienyl)methoxy]-2-(2,4-dichlorophenyl)ethyl]-1H-imidazole], in series [2] (mouse, in vivo, po), the LD12.5 is greater than 500 mg/kg. Besides, in series [6], the CFU/g kidney is on record as 8.1 × 10^3 CFU/g kidney and the “CFU/g kidney, % of control” value was 55 % of control. Also, in series [7] (i.v.), the “No. of CFU/g kidney at 48 h” value is given as 1.2 × 10^3 CFU/g kidney. Besides, in series [7] (p.o.), the “No. of CFU/g kidney at 48 h” value is reported as 2.2 × 10^3 CFU/g kidney.
With `Clc1ccc(/C(Cn2ccnc2)=N\Nc2ccccc2Cl)cc1` [HC 500, (E)-1-(4-chlorophenyl)-2-(1H-imidazol-1-yl)ethanone, 2-chlorophenylhydrazone, hydrochloride], the IC50 in series [1] (setting [8]) was greater than 80000 nM.
Turning to `Clc1ccc(C(Cn2ccnc2)=NNc2cc(Cl)cc(Cl)c2)cc1` [HC 346, 1-(4-chlorophenyl)-2-(1H-imidazol-1-yl) ethanone, 3,5-dichlorophenylhydrazone], the IC50 in series [1] (setting [8]) was 2700 nM.
Turning to `CC(=O)N1CCN(c2ccc(OCC3COC(Cn4ccnc4)(c4ccc(Cl)cc4Cl)O3)cc2)CC1` (stereo not drawn) [Ketoconazole, cis-1-Acetyl-4-[4-[[2-(2,4-dichlorophenyl)-2-(1H-imidazol-1-yl-methyl)-1,3-dioxolan-4-yl]methoxy]piperazine, reference compound], the “Clearance of C. albicans from rat vagina (as percentage of control)” value in series [4] (oral, 10 mg/kg once daily for 3 days) was 99.9 percentage of control; in series [4] (setting [11]), 99.9 percentage of control. Besides, the “Disease rating (degree of hair loss, erythema, desquamation, Max. = 100)” value in series [3] (20 mg/kg p.o., day 5 after infection) stood at 100; in series [3] (20 mg/kg p.o., day 10 after infection), 63.7; in series [3] (setting [9]) it was 56.4; in series [3] (setting [10]), 100. Also, the “Recovery of C.albicans (as percentage of control)” value in series [5] (5 mg/kg) was 51.0 percentage of control; in series [5] (20 mg/kg), 11.7 percentage of control.
Take `Clc1ccc(COC(Cn2ccnc2)c2ccc(Cl)cc2Cl)c(Cl)c1` (centres unmarked) [Miconazole, 1-[2-(2,4-Dichlorophenyl)-2-[(2,4-dichlorophenyl)methoxy]ethyl]-1H-imidazole]: in series [2] (mouse, in vivo, iv, male mice, 7 day, read-out: LD50), the LD50 at 168 h came out at 80 mg/kg. In series [2] (p.o., male mice, 7 day), this compound showed an LD12.5 greater than 500 mg/kg. Moreover, the “No. of CFU/g kidney at 48 h” value in series [7] (i.v.) is 9 × 10^2 CFU/g kidney; in series [7] (p.o.), 1.4 × 10^3 CFU/g kidney.
Regarding `O=[N+]([O-])c1ccc(NN=C(Cn2ccnc2)c2ccccc2Cl)c([N+](=O)[O-])c1` [HC 336, 1-(2-chlorophenyl)-2-(1H-imidazol-1-yl) ethanone, 2,4-dinitrophenylhydrazone, hydrochloride], the IC50 in series [1] (Homo sapiens) came out at 900 nM.

The record behind these values is patent US4351948A, “Imidazole hydrazone derivatives” (priority 1980, dated 1982).
